Values of other authors, collected in patent US20150064117A1, “NOVEL POLYMORPHS OF REBAUDIOSIDE C AND METHODS FOR MAKING AND USING THE SAME” (Redpoint Bio Corporation, priority 2009, published 2015).
Where two headings read alike, the source gives them in different places.

Columns and labels:
[1] = relative to sucrose

C=C1C[C@@]23CC[C@H]4[C@@](C)(CCC[C@@]4(C)C(=O)O[C@@H]4O[C@H](CO)[C@@H](O)[C@H](O)[C@H]4O)[C@@H]2CC[C@]1(O[C@@H]1O[C@H](CO)[C@@H](O)[C@H](O)[C@H]1O[C@@H]1O[C@@H](C)[C@H](O)[C@@H](O)[C@H]1O)C3 [dulcoside A]
times sweeter than sucrose [1]: 30 times

C=C1C[C@@]23CC[C@H]4[C@@](C)(CCC[C@@]4(C)C(=O)O[C@@H]4O[C@H](CO)[C@@H](O)[C@H](O)[C@H]4O)[C@@H]2CC[C@]1(O[C@@H]1O[C@H](CO)[C@@H](O)[C@H](O[C@@H]2O[C@H](CO)[C@@H](O)[C@H](O)[C@H]2O)[C@H]1O[C@@H]1O[C@H](CO)[C@@H](O)[C@H](O)[C@H]1O)C3 [rebaudioside A]
effect in mixture (presence and degree of synergism) (mixture with fructose, intensity equivalent to 3% (w/v-%) sucrose): additive
effect in mixture (presence and degree of synergism) (mixture with fructose, intensity equivalent to 5% (w/v-%) sucrose): additive
effect in mixture (presence and degree of synergism) (mixture with fructose, intensity equivalent to 7% (w/v-%) sucrose): suppressive
effect in mixture (presence and degree of synergism) (mixture with glucose, intensity equivalent to 3% (w/v-%) sucrose): additive
effect in mixture (presence and degree of synergism) (mixture with glucose, intensity equivalent to 5% (w/v-%) sucrose): additive
effect in mixture (presence and degree of synergism) (mixture with glucose, intensity equivalent to 7% (w/v-%) sucrose): suppressive
effect in mixture (presence and degree of synergism) (mixture with sucrose, intensity equivalent to 3% (w/v-%) sucrose): synergistic
effect in mixture (presence and degree of synergism) (mixture with sucrose, intensity equivalent to 5% (w/v-%) sucrose): additive
effect in mixture (presence and degree of synergism) (mixture with sucrose, intensity equivalent to 7% (w/v-%) sucrose): additive

Rebaudioside C
times sweeter than sucrose [1]: ≥ 40 times
